# In patent US20190231847A1, “TREATMENT OF OCULAR DISEASE” (priority 2016, published 2019):
# Like-named read-outs stand apart in the source and are kept apart here.
# Legend:
# [1] = Bodyweight of EAU mice during the course of treatment; settings: Dexamethasone 0.5 mg/kg p.o.; ALM201 0.3 mg/kg i.p.+Dexamethasone 0.5 mg/kg p.o.
# Source text: (§4) Bodyweight (BW) of each mouse was monitored daily during the course of treatment.
# [2] = system: retinal inflammation; experiment: Mouse experimental autoimmune uveitis (EAU) model, clinical score from fundus images (TEFI); settings: for Difference between day 14 p.i. and day 24 p.i. (clinical score): paired Student's t test
# Method: The effect of ALM201 on autoimmune uveitis was tested in a mouse model of experimental autoimmune uveitis (EAU).
# All mice were maintained in a normal experimental room and exposed to a 12-hour-dark-12-hour light cycle.
# An additional 1 mg Bordetella pertussis toxin (Tocris Bioscience, Bristol, UK) was administered intraperitoneally immediately after peptide injection.
# Mouse pupils were dilated with 1% atropine sulphate and 2.5% phenylephrine hydrochloride (Chauvin, Essex, UK). The animals were anaesthetised by isofluorane. […] Clinical score of retinal inflammation was accessed using the criteria described previously by us (Xu et al. 2008a).
# Ten mice were assigned into each group.
# All animals were treated for 10 days from day 14 to 24 p.i.
# Group 2: ALM201 0.3 mg/kg in 100 ml, i.p. injection, once daily.
# Group 3: ALM201 3 mg/kg in 100 ml, i.p. injection, once daily.
# Group 4: Dexamethasone 0.5 mg/kg in 100 ml, p.o. (gavage), once daily.
# Group 5: ALM201 0.3 mg/kg in 100 ml, i.p. injection+Dexamethasone 0.5 mg/kg in 100 ml, p.o. (gavage) once daily.
# Data (Clinical score and histological score) was expressed as mean±SD. One way ANOVA followed by the Tukey's Multiple Comparison Test was used to detect difference between all treatment groups. In addition, Mann-Whitney U test (two tails) was used to detect the difference between ALM201 or dexamethasone treated group and PBS control group. Paired Student's t test was used to compare clinical score before and after treatment.
# [3] = system: neovascularisation induced by sutures in the cornea; experiment: Rat corneal suture model, Example 1 (blinded grading at day 6, images); type: in vivo
# Method: To assess the action of ALM201 (SEQ ID NO:3) on the ocular surface, the ability to halt vessel growth was measured. Vessel growth was stimulated through a well-accepted model (Shi et al., 2011) whereby a suture was placed in the central cornea of rat eyes (FIG. 1). We have shown the rat eye is similar anatomically to the human eye (Moore J E, McMullen C B, Mahon G and Adamis A P. The corneal epithelial stem cell. DNA Cell Biol. 2002; 21(5-6):443-51; incorporated herein by reference).
# The experimental groups were: • Subconjunctival injection of peptide (5 rats), control group (5 rats) and positive control group (5 rats) • Intrastromal injection of peptide (5 rats), control group (5 rats) and positive control group (5 rats) • Topical application of peptide (5 rats), control group (5 rats) and positive control group (5 rats)
# A suture was placed in the central cornea of one eye of each animal while the control eye remained untouched. For the injection groups, peptide was added to the rat's eyes at day 0, day 3, and day 6. For the topical application group, peptide and the positive control was added daily. Each day after suture, rats were monitored for vessel growth and photographed using a Hawk Eye Portable Digital Slit Lamp (Dioptrix, France) and inverted microscope (Nikon's E600FN; Surrey, UK). At a time point when a difference is noted (e.g. day 6) between untreated and peptide treated animals, they received 8 μg/g tail vein injections of an endothelial-specific fluorescein-conjugated lectin (Lycopersicon esculentum; Vector Laboratories, Burlingame, Calif.). Thirty minutes later, the eyes were harvested and fixed with 10% neutral buffered formalin for 24 hours. The corneas were isolated and flat-mounted on glass slides. The fluorescence in the perfused vessels was captured using a Leica SP5 multiphoton microscope (Milton Keynes, UK). Vessel formation within tagged information file format (.tiff) files was measured by visualization with Image J (Rasband, 1997-2014).
# At day 6 all rats were graded by an opthalmologist blinded to the treatment. Grading scales were as follows:
# Vessel distance from suture: 0=no reach; 1=small distance; 2=moderate distance; 3=¾ of the way; 4=reached sutures;
# Vessel density grading: 0=no density; 1=mild; 2=moderate; 3=high Inflammation grading: 0=none; 1=minimal; 2=moderate; 3=severe;
# [4] = system: retinal inflammation; experiment: Mouse EAU model, histopathology (H&E) and histological score; type: in vivo, C57BL/6J mice
# Source text: On day 24 p.i., fundus images were taken from all experimental mice using the TEFI system. Mice were then sacrificed by CO2 inhalation and eyes were carefully removed. All eyes were fixed in 2.5% (w/v) glutaraldehyde (Agar Scientific Ltd, Cambridge, UK) for 2 days at room temperature. Eyes were embedded in paraffin for standard H&E staining. Histological scores of retinal inflammation were graded using a standard scoring system described previously (Dick A. D., Cheng Y. F., Liversidge J., Forrester J. V., 1994. Immunomodulation of experimental autoimmune uveoretinitis: a model of tolerance induction with retinal antigens. Eye 8 (Pt 1), 52-59, incorporated herein by reference). Retinal sections from at least three different layers from each eye were used for histopathological analysis. The average score from three layers was used as the final pathological score of the eye.
# [5] = system: infiltrated cells and CD68+ cells in sutured cornea; experiment: Histological analysis (H&E, CD68+) of sutured rat eyes, Example 3; type: in vivo; settings: topical ALM201, day 6 after suture and treatment
# Method: FIG. 11 Histological analysis by haematoxylin and eosin (H&E) staining showing increased infiltration of cells in control samples (PBS or dexamethasone) compared to treated samples (ALM201, 1 μM or 100 μM) at day 6 after suture and treatment. (A) Haematoxylin and eosin stained sections for each of the experimental groups. White arrows indicate sutures and black arrows show blood vessels (scale bar=500 μm). […] (B) The number of total infiltrated cells and (C) number of CD68+ infiltrated cells in each experimental group was quantitated, with higher numbers of infiltrated cells present in the control group compared to the peptide treated group.
# On day 0, sutures where placed into the cornea of rats to induce corneal neovascularisation and inflammation. The eyes were treated for 3 days or 6 days with 16 μl of ALM201 (100 nM and 100 μM) or PBS (vehicle control).
# Eyes were enucleated on the 3rd or 6th day one hour after treatment and frozen in gelatine.
# Cross sections (10 μm) were taken at the centre of the eye for MSI, adjacent sections were stained with haematoxylin and eosin (H&E).
# [6] = system: neovascularisation and inflammation in the injured cornea; experiment: ALM201 concentration titration in rat corneal suture model, clinical scoring, Example 4; type: in vivo; settings: for Vessel density, clinical score compared to PBS control group / Inflammation scoring in comparison to PBS treated group: scored day 7
# Method: Each rat was anesthetised and two 10-0 sutures were placed intrastromally into the temporal cornea of the left eye, 1.5 mm from the limbus. The sutures were left in place for the entirety of the experiment. The right eye was kept as a no suture control but given the same treatment as the left eye. Treatment began approx. 24 hours after suture placement and continued once a day for 6 days.
# (§1) Approximately 24 hours after the last treatment the eyes were imaged and clinically scored. The sutured eyes were scored based on vessel density, vessels distance to suture and inflammation. Vessel density was scored out of three, 0=no density, 1=mild, 2=moderate, 3=high. Vessels distance to suture was scored out of four, 0=no reach, 1=small distance, 2=moderate distance, 3=¾ of the way, 4=reached sutures and inflammation was scored out of three, 0=none, 1=minimal, 2=moderate, 3=severe. After clinical scoring the eyes were enucleated, tissue processed, wax embedded and cut into 5 μm sections while taking care to find the sutured area. Sections were stained with haematoxylin and eosin (H&E) to confirm suture location in each eye and adjacent slides were then used for immunohistochemistry to identify CD44+ cells and FKBPL expression as well NFκB and p-IκBα.
# [7] = system: cell infiltrate, corneal swelling and blood vessels; experiment: H&E staining of sutured rat corneas, Example 4; type: in vivo
# Method: as §1
# (§2) Sections (5 μm) were stained with haematoxylin and eosin (H&E) to confirm suture location in each eye. Adjacent slides were then used for immunohistochemistry to identify, CD44+ cells and FKBPL expression.
# [8] = system: CD44; experiment: Immunohistochemistry staining for CD44 in rat cornea; type: in vivo; settings: sutured corneas, 1 μM ALM201
# Method: as §1, §2
# [9] = system: FKBPL; experiment: Immunohistochemistry of FKBPL in rat cornea; type: in vivo; settings: 1 μM ALM201
# Method: as §1, §2
# [10] = system: NFκB; experiment: Immunohistochemical analysis of free NFκB expression in rat cornea; type: in vivo; settings: 1 μM ALM201
# Method: as §1
# (§3) NFκB and phosphorylated-IκBα antibodies were also used in this experiment to see if ALM201 affected the NFκB pathway. Nuclear factor kappa-light-chain-enhancer of B cells or NFκB is a transcription factor which is involved in several processes including inflammation, B cell development, apoptosis, immune regulation and cell proliferation. There are 5 different NFκB heterodimers in the NFκB family, depending on which heterodimer is activated they can activate or repress the transcription of the above process. […]
# [11] = system: p-IκBα; experiment: Immunohistochemistry of p-IκBα expression in rat cornea; type: in vivo; settings: 1 μM ALM201
# Method: as §1, §3
# [12] = mouse, in vivo, ip, 0.3 mg/kg
# Source text: as §4
# [13] = Dexamethasone 0.5 mg/kg p.o. once daily day 14-24 p.i., 10 mice
# [14] = subconjunctival injection, 100 nM ALM201, Triamcinolone positive control
# [15] = ALM201 0.3 mg/kg, after 10 days therapy
# [16] = once a day for 6 days, ALM201 100 μM
# [17] = ALM201 0.3 mg/kg i.p. once daily day 14-24 p.i., 10 mice
# [18] = ALM201 3 mg/kg i.p. once daily day 14-24 p.i., 10 mice
molecule,measurement,setting,value
"C[C@@H]1C[C@H]2[C@@H]3CCC4=CC(=O)C=C[C@]4(C)[C@@]3(F)[C@@H](O)C[C@]2(C)[C@@]1(O)C(=O)CO [Dexamethasone, reference compound]",Bodyweight during the 10-day treatment period,[1],stable BW
same,No. of mice with decreased score,[2]; [13],3
same,No. of mice with increased score,[2]; [13],3
same,No. of mice with increased score (%),[2]; [13],(30%)
same,No. of mice with no change,[2]; [13],4
same,Average increment in EAU score,"[2]; Dexamethasone 0.5 mg/kg, the 3 mice with increased score",0.80
same,Average reduction in EAU score,"[2]; Dexamethasone 0.5 mg/kg, the 3 mice with reduced score",0.69
"C[C@]12C=CC(=O)C=C1CC[C@H]1[C@@H]3C[C@@H](O)[C@](O)(C(=O)CO)[C@@]3(C)C[C@H](O)[C@@]12F [Triamcinolone, reference compound]",Vasculature in images (neovascularisation induced by sutures),[3]; [14],normal vasculature
IRQQPRDPPTETLELEVSPDPAS (listed as Homo Sapiens) [ALM201],Suture-induced neovascularisation in images,"[3]; Hooded Lister Rats, 100 nM ALM201, dexamethasone, vs PBS control",absence of neovascularisation
same,Growth of new blood vessels after corneal damage,[3]; after subconjunctival injection or topical application,prevented growth of new blood vessels
same,Vessel distance from suture compared to PBS control,"[3]; subconjunctival injection day 0, 3, 6, 100 nM ALM201, graded day 6",significant difference of p<0.01
same,Vasculature in images (neovascularisation induced by sutures),[3]; [14],normal vasculature
same,Vasculature in images (neovascularisation induced by sutures),"[3]; topical treatment, daily",normal vasculature
same,Vessel density compared to PBS control,"[3]; topical treatment, daily",significantly different
same,Anti-inflammatory activity,[3]; when injected,had anti-inflammatory activity when injected
same,Infiltrating cells in retinal histology,[4]; [15],Fewer infiltrating cells
same,Retinal structure compared to PBS treated mice,[4]; [15],retinal structure was better preserved
same,Retinal inflammation graded by standard histological scoring system (FIG. 8H),[4]; ALM201 0.3 and 3 mg/kg,dose-dependently suppressed retinal inflammation
same,CD68+ cell infiltrates compared to PBS-treated and dexamethasone-treated animals,[5],reduced
same,Neovascularisation in histological analysis compared to controls,[5],decreased neovascularisation
same,Total cell infiltrates compared to PBS-treated and dexamethasone-treated animals,[5],reduced total cell infiltrates
same,Inflammation and vessel density scores compared with dexamethasone,[6]; ALM201 100 μM,significant difference in scores
same,"Vessel density, clinical score compared to PBS control group","[6]; once a day for 6 days, ALM201 1 μM, dexamethasone positive control",significant decrease
same,"Vessel density, clinical score compared to PBS control group","[6]; once a day for 6 days, ALM201 10 μM",significant decrease
same,Inflammation scoring in comparison to PBS treated group,"[6]; once a day for 6 days, ALM201 10 μM, dexamethasone positive control",significant difference
same,Inflammation scoring in comparison to PBS treated group,[6]; [16],significant difference
same,"Vessel density, clinical score compared to PBS control group",[6]; [16],significant decrease
same,"Vessel distance to sutures, clinical score compared to PBS vehicle control","[6]; once a day for 6 days, scored day 7 after suture, ALM201 1 μM, dexamethasone positive control",significantly different
same,Most effective concentrations in preventing angiogenesis and inflammation,[6]; titration 0.01 μM to 100 μM,1 µM and 10 µM
same,"Cell infiltrate, corneal swelling and blood vessels (H&E)",[7]; ALM201 0.01 μM to 10 μM,decreased as the ALM201 concentration was increased
same,Corneal swelling (H&E),[7]; ALM201 100 μM,more corneal swelling was observed
same,CD44 expression compared to sutured PBS control,[8],decrease in CD44 expression
same,FKBPL expression in the corneal epithelium and stroma in comparison with PBS treated sutured corneas and normal corneas,[9],increased
same,NFκB expression compared to PBS control sutured corneas,[10]; sutured corneas,reduction in NFκB expression in the stroma
same,Pattern of NFκB expression,[10]; unsutured corneas,no effect
same,p-IκBα expression compared to PBS treated sutured corneas,[11]; sutured corneas,reduced
same,p-IκBα expression,[11]; unsutured corneas,no expression of p-IκBα
same,Bodyweight during the 10-day treatment period,[12],stable BW
same,Mice in which progression was prevented or inflammation reduced,[2]; ALM201 0.3 mg/kg,20%
same,Mice with decreased level of EAU progression,[2]; ALM201 0.3 mg/kg,80%
same,No. of mice with decreased score (%),[2]; [17],(10%)
same,No. of mice with increased score,[2]; [17],8
same,No. of mice with increased score (%),[2]; [17],(80%)
same,No. of mice with no change (%),[2]; [17],(10%)
same,Difference between day 14 p.i. and day 24 p.i. (clinical score),"[2]; ALM201 0.3 mg/kg i.p., 0.3 mg/kg",did not significant change and No
same,Retinal infiltrates in fundus images compared to PBS treated EAU mice,"[2]; ALM201 0.3 mg/kg, day 24 p.i.",the number of infiltrates was fewer
same,"Average increment in clinical score, day 14 to day 24 p.i.","[2]; ALM201 0.3 mg/kg, the 8 mice with increased score",0.68
same,No. of mice with decreased score,[2]; [18],3
same,No. of mice with increased score (%),[2]; [18],(40%)
same,No. of mice with no change,[2]; [18],3
same,Difference between day 14 p.i. and day 24 p.i. (clinical score),[2]; ALM201 3 mg/kg i.p.,No
same,"Average decrement in clinical score, day 14 to day 24 p.i.","[2]; ALM201 3 mg/kg, the 3 mice with decreased score",0.33
same,"Average increment in clinical score, day 14 to day 24 p.i.","[2]; ALM201 3 mg/kg, the four mice with increased score",0.82 point
